Read-outs that look alike come from different tables or passages of the source.
Columns and labels:
[1] = biological target: various β-lactamases (bacterial lysates) (Escherichia coli, UniProt A0A649V088); assay: biochemical; format: biochemical; conditions: read-out: AZT IC50 KP1005 CTX-M-14
[2] = biological target: various β-lactamases (bacterial lysates) (Klebsiella pneumoniae, UniProt Q9F663, H272Y); assay: biochemical; format: biochemical
[3] = biological target: various β-lactamases (bacterial lysates) (Escherichia coli, UniProt A0A5R8T042); assay: biochemical; format: biochemical; conditions: read-out: AZT IC50 KP1009 CTX-M-15
[4] = biological target: various β-lactamases (bacterial lysates) (Pseudomonas aeruginosa, UniProt P14489); assay: biochemical; format: biochemical; conditions: AZT IC50 KP1007 OXA-10
[5] = biological target: various β-lactamases (bacterial lysates) (Salmonella typhimurium, UniProt P0A1V8); assay: biochemical; format: biochemical; conditions: AZT IC50 KPX1001 OXA-2
[6] = biological target: various β-lactamases (bacterial lysates) (Klebsiella pneumoniae, UniProt Q9F663); assay: biochemical; format: biochemical
[7] = tested on: strains expressing class A ESBLs; format: cell-based
Procedure: Selected β-lactamase inhibitors were also tested for their ability to potentiate the monobactam tigemonam.

[8] = biological target: various β-lactamases (bacterial lysates) (Escherichia coli, UniProt Q53TY8); assay: Inhibition of nitrocefin cleavage by bacterial lysates, Table 11; format: biochemical; conditions: lysate EC1010 pAmpC (CMY-6), read-out: NCF IC50 EC1010 pAmpC (CMY-6)
[9] = lysate KP1004 KPC-2, aztreonam cleavage, read-out: AZT IC50 KP1004 KPC-2 (converted)
[10] = lysate KP1008 KPC-2, aztreonam cleavage, read-out: AZT IC50 KP1008 KPC-2

Sequence of various β-lactamases (bacterial lysates) (Salmonella typhimurium, UniProt P0A1V8) (P0A1V8 22-275): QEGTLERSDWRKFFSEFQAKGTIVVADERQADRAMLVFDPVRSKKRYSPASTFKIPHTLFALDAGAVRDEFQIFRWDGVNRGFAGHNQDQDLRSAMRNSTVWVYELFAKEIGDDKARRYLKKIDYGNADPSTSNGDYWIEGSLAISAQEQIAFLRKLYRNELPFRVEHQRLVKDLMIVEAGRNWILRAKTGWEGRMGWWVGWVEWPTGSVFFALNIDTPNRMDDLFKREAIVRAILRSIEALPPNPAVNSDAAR
Sequence of various β-lactamases (bacterial lysates) (Escherichia coli, UniProt A0A5R8T042) (A0A5R8T042 29-291): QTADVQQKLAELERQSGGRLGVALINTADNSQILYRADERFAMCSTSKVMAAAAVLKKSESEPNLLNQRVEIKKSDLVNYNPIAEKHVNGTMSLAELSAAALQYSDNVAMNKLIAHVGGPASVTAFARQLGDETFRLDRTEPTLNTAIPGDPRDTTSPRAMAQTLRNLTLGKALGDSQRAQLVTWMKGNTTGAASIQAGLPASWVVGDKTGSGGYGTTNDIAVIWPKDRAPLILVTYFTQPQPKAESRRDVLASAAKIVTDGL
Sequence of various β-lactamases (bacterial lysates) (Pseudomonas aeruginosa, UniProt P14489) (P14489 20-266): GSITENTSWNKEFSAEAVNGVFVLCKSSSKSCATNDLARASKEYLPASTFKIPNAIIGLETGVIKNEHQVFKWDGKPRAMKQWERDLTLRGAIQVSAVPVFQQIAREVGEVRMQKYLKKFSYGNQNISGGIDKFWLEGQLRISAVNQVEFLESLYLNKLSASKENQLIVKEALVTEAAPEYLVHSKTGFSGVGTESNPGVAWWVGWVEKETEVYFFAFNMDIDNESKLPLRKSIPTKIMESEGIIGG
Sequence of various β-lactamases (bacterial lysates) (Klebsiella pneumoniae, UniProt Q9F663, H272Y) (Q9F663 whole entry H272Y, looked up): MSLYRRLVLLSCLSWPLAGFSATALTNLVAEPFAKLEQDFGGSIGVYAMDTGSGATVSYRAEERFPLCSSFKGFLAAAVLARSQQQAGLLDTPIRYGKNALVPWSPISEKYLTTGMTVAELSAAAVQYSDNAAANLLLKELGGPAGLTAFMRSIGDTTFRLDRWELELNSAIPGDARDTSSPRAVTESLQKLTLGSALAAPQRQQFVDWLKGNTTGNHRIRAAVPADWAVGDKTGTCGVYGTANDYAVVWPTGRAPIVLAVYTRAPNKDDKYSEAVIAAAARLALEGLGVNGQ
Sequence of various β-lactamases (bacterial lysates) (Escherichia coli, UniProt Q53TY8) (Q53TY8 entry or part of it): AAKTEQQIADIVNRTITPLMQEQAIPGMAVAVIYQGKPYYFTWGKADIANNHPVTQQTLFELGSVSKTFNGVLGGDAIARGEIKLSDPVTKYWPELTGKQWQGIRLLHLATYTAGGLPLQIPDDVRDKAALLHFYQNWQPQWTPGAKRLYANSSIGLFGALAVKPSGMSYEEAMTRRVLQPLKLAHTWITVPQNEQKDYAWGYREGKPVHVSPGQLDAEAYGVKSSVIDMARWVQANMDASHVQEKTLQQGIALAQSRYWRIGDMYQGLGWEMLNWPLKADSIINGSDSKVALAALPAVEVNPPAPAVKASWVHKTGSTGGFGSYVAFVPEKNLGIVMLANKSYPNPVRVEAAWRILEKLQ
Sequence of various β-lactamases (bacterial lysates) (Escherichia coli, UniProt A0A649V088) (A0A649V088 29-291): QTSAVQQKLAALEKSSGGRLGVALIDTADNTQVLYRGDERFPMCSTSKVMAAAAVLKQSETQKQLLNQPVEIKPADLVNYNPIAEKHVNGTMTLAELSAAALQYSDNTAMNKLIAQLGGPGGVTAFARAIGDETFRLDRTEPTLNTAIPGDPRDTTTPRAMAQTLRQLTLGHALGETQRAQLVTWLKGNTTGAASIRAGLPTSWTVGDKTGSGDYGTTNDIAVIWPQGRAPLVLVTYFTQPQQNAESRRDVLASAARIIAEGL
Sequence of various β-lactamases (bacterial lysates) (Klebsiella pneumoniae, UniProt Q9F663) (Q9F663 whole entry, looked up): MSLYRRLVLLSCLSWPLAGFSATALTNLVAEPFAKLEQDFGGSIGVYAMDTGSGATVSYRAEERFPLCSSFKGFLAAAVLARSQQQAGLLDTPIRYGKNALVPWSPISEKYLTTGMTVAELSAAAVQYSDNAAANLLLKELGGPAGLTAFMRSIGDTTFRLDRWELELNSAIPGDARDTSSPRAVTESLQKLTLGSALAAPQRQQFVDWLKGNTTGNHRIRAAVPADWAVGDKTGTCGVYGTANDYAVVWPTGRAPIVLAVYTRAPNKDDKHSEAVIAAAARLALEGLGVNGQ

Q: `O=C(O)[C@H]1/C(=C/CO)O[C@@H]2CC(=O)N21` [Clavulanic Acid, reference compound] was tested. Which IC50 [1] did it give?
A: 275 nM

Q: And the IC50 [2]?
A: 7430 nM

Q: What about the IC50 [3] of the same compound?
A: 1240 nM

Q: What about the IC50 [4] of the same compound?
A: 7.43 µM

Q: What about the IC50 [5] of the same compound?
A: 402 nM

Q: What about the IC50 ([6]; AZT IC50 KP1004 KPC-2) of the same compound?
A: 3.72 µM

Q: And the IC50 ([6]; AZT IC50 KP1008 KPC-2)?
A: 11.1 µM

Q: And the “MPC4 CTX-M-14 KP1005” value [7]?
A: 2.5 µg/mL

Q: And the “MPC4 CTX-M-15 KP1009” value [7]?
A: 1.25 µg/mL

Q: And the “MPC4 SHV-5 ec308” value [7]?
A: <=0.6 μg/mL

Q: And the “MPC4 SHV-12 KP1010” value [7]?
A: <=0.6 μg/mL

Q: And the “MPC4 SHV-18 KP1012” value [7]?
A: <=0.6 μg/mL

Q: What about the “MPC4 TEM-10 EC1009” value [7] of the same compound?
A: <=0.6 μg/mL

Q: What about the “MPC4 TEM-10 ec302” value [7] of the same compound?
A: 2.5 µg/mL

Q: What about the “MPC4 TEM-26 ec304” value [7] of the same compound?
A: <=0.6 μg/mL

Q: For `CC(C)(O/N=C(\C(=O)N[C@H]1CC[C@@H](CC(=O)O)OB1O)c1csc(N)n1)C(=O)O` [Compound 36, 2-((Z)-1-(2-aminothiazol-4-yl)-2-((3R,6S)-6-(carboxymethyl)-2-hydroxy-1,2-oxaborinan-3-ylamino)-2-oxoethylideneaminooxy)-2-methylpropanoic acid], which IC50 [1] is on record?
A: < 1170 nM

Q: And the IC50 [2]?
A: < 1170 nM

Q: What about the IC50 [3] of the same compound?
A: < 1170 nM

Q: What about the IC50 [4] of the same compound?
A: > 4.67 µM

Q: And the IC50 [5]?
A: > 4670 nM

Q: What about the IC50 [6, 9] of the same compound?
A: 1.17 to 4.67 µM

Q: What about the IC50 [6, 10] of the same compound?
A: 1.17 to 4.67 µM

Q: What about the IC50 [8] of the same compound?
A: > 4.67 µM

Q: What does the source list for `O=C(O)C[C@@H]1CC[C@H](NC(=O)c2ccccc2)B(O)O1` [Compound 37, 2-((3R,6S)-3-benzamido-2-hydroxy-1,2-oxaborinan-6-yl)acetic acid]?
A: IC50 [1]: < 1800 nM; IC50 [2]: < 1800 nM; IC50 [3]: < 1800 nM; IC50 [4]: 1.8 to 7.22 µM; IC50 [5]: 1800 to 7220 nM; IC50 [6, 9]: < 1.8 µM; IC50 [6, 10]: < 1.8 µM; MPC4 CTX-M-14 KP1005 [7]: Z (key: X: MPC@4 of less than 2 μg/mL; Y: MPC@4 of 2 μg/mL to 10 μg/mL; Z: MPC@4 of greater than 10 μg/mL); MPC4 CTX-M-15 KP1009 [7]: Z (key: X: MPC@4 of less than 2 μg/mL; Y: MPC@4 of 2 μg/mL to 10 μg/mL; Z: MPC@4 of greater than 10 μg/mL); MPC4 SHV-5 ec308 [7]: Z (key: X: MPC@4 of less than 2 μg/mL; Y: MPC@4 of 2 μg/mL to 10 μg/mL; Z: MPC@4 of greater than 10 μg/mL); MPC4 SHV-12 KP1010 [7]: Z (key: X: MPC@4 of less than 2 μg/mL; Y: MPC@4 of 2 μg/mL to 10 μg/mL; Z: MPC@4 of greater than 10 μg/mL); MPC4 SHV-18 KP1012 [7]: Z (key: X: MPC@4 of less than 2 μg/mL; Y: MPC@4 of 2 μg/mL to 10 μg/mL; Z: MPC@4 of greater than 10 μg/mL); MPC4 TEM-10 EC1009 [7]: Z (key: X: MPC@4 of less than 2 μg/mL; Y: MPC@4 of 2 μg/mL to 10 μg/mL; Z: MPC@4 of greater than 10 μg/mL); MPC4 TEM-10 ec302 [7]: Z (key: X: MPC@4 of less than 2 μg/mL; Y: MPC@4 of 2 μg/mL to 10 μg/mL; Z: MPC@4 of greater than 10 μg/mL); MPC4 TEM-26 ec304 [7]: Z (key: X: MPC@4 of less than 2 μg/mL; Y: MPC@4 of 2 μg/mL to 10 μg/mL; Z: MPC@4 of greater than 10 μg/mL)

Q: How did the IC50 [1] turn out when `Nc1nc(CC(=O)N[C@H]2CC[C@@H](CC(=O)O)OB2O)cs1` [Compound 39, 2-((3R,6S)-3-(2-(2-aminothiazol-4-yl)acetamido)-2-hydroxy-1,2-oxaborinan-6-yl)acetic acid] was run?
A: 1600 to 6390 nM

Q: What about the IC50 [2] of the same compound?
A: < 1600 nM

Q: What about the IC50 [3] of the same compound?
A: 1600 to 6390 nM

Q: What about the IC50 [4] of the same compound?
A: > 6.39 µM

Q: What about the IC50 [5] of the same compound?
A: 1600 to 6390 nM

Q: What about the IC50 [6, 9] of the same compound?
A: < 1.6 µM

Q: What about the IC50 [6, 10] of the same compound?
A: 1.6 to 6.39 µM

Q: What about the IC50 [8] of the same compound?
A: > 6.39 µM

Q: With `CO/N=C(\C(=O)N[C@H]1CC[C@@H](CC(=O)O)OB1O)c1csc(N)n1` [Compound 40, 2-((3R,6S)-3-((Z)-2-(2-aminothiazol-4-yl)-2-(methoxyimino)acetamido)-2-hydroxy-1,2-oxaborinan-6-yl)acetic acid] as the compound, how does the IC50 [1] read?
A: < 1400 nM

Q: And the IC50 [2]?
A: 1400 to 5620 nM

Q: What about the IC50 [3] of the same compound?
A: < 1400 nM

Q: And the IC50 [4]?
A: 1.4 to 5.62 µM

Q: And the IC50 [5]?
A: < 1400 nM

Q: And the IC50 [6, 9]?
A: 1.4 to 5.62 µM

Q: What about the IC50 [6, 10] of the same compound?
A: > 5.62 µM

Q: What about the IC50 [8] of the same compound?
A: 1.4 to 5.62 µM

Q: With `NCCSCC(=O)N[C@H]1CC[C@@H](CC(=O)O)OB1O` [Compound 48, 2-((3R,6S)-3-(2-(2-aminoethylthio)acetamido)-2-hydroxy-1,2-oxaborinan-6-yl)acetic acid] as the compound, how does the IC50 [1] read?
A: 1720 to 6890 nM

Q: And the IC50 [2]?
A: < 1720 nM

Q: What about the IC50 [3] of the same compound?
A: > 6890 nM

Q: And the IC50 [4]?
A: > 6.89 µM

Q: What about the IC50 [5] of the same compound?
A: 1720 to 6890 nM

Q: And the IC50 [6, 9]?
A: < 1.72 µM

Q: And the IC50 [6, 10]?
A: 1.72 to 6.89 µM

Q: And the “MPC4 CTX-M-14 KP1005” value [7]?
A: Z (key: X: MPC@4 of less than 2 μg/mL; Y: MPC@4 of 2 μg/mL to 10 μg/mL; Z: MPC@4 of greater than 10 μg/mL)

Q: What about the “MPC4 CTX-M-15 KP1009” value [7] of the same compound?
A: Z (key: X: MPC@4 of less than 2 μg/mL; Y: MPC@4 of 2 μg/mL to 10 μg/mL; Z: MPC@4 of greater than 10 μg/mL)

Q: And the “MPC4 SHV-5 ec308” value [7]?
A: Z (key: X: MPC@4 of less than 2 μg/mL; Y: MPC@4 of 2 μg/mL to 10 μg/mL; Z: MPC@4 of greater than 10 μg/mL)

Q: What about the “MPC4 SHV-12 KP1010” value [7] of the same compound?
A: Z (key: X: MPC@4 of less than 2 μg/mL; Y: MPC@4 of 2 μg/mL to 10 μg/mL; Z: MPC@4 of greater than 10 μg/mL)

Q: And the “MPC4 SHV-18 KP1012” value [7]?
A: Z (key: X: MPC@4 of less than 2 μg/mL; Y: MPC@4 of 2 μg/mL to 10 μg/mL; Z: MPC@4 of greater than 10 μg/mL)

Q: What about the “MPC4 TEM-10 EC1009” value [7] of the same compound?
A: Z (key: X: MPC@4 of less than 2 μg/mL; Y: MPC@4 of 2 μg/mL to 10 μg/mL; Z: MPC@4 of greater than 10 μg/mL)

Q: And the “MPC4 TEM-10 ec302” value [7]?
A: Z (key: X: MPC@4 of less than 2 μg/mL; Y: MPC@4 of 2 μg/mL to 10 μg/mL; Z: MPC@4 of greater than 10 μg/mL)

Q: What about the “MPC4 TEM-26 ec304” value [7] of the same compound?
A: Z (key: X: MPC@4 of less than 2 μg/mL; Y: MPC@4 of 2 μg/mL to 10 μg/mL; Z: MPC@4 of greater than 10 μg/mL)

From patent US11090319B2, “Therapeutic uses of pharmaceutical compositions comprising cyclic boronic acid ester derivatives” (Melinta Subsidiary Corp., priority 2010, dated 2021)
